{"source": "patent US9603858B2", "about": "“Compositions for preventing and treating an immune system disorder” (RAISIO NUTRITION LTD., priority 2010, dated 2017)", "key": {"[1]": {"test_system": "PBMCs from asthma patients", "assay": "Cytokine production in PHA stimulated PBMCs cultured ex vivo with sitostanol", "assay_type": "cell-based, human", "conditions": "sitostanol 1.2 μM, 52 hours PHA stimulation", "source_text": "20 people were enrolled in the study: 10 asthma patients and 10 healthy controls. Healthy controls were matched to the asthma patients in sex, age and body mass index (BMI). Exclusion criteria were smoking, diabetes, autoimmune diseases, inflammatory diseases, and the use of plant stanol or plant sterol enriched food products. Blood was taken twice from each participant, with a four-week interval. Peripheral blood mononuclear cells (PBMCs) were isolated and cultured with either cholesterol or sitostanol added to the culture. The concentration of PBMCs in the test culture was the same as in blood naturally. The concentrations of sitostanol and cholesterol were 1.2 μM. After 52 hours of stimulation with PHA (phytohemagglutinin), cytokine concentrations in the culture medium were determined. Cholesterol was added as a control to see whether the observed effects were specific plant stanol effects."}, "TLR2": {"biological_target": "T1, TLR2 (Homo sapiens, UniProt O60603)", "T1 construct": "endogenous in cells", "T1 sequence (O60603 21-784)": "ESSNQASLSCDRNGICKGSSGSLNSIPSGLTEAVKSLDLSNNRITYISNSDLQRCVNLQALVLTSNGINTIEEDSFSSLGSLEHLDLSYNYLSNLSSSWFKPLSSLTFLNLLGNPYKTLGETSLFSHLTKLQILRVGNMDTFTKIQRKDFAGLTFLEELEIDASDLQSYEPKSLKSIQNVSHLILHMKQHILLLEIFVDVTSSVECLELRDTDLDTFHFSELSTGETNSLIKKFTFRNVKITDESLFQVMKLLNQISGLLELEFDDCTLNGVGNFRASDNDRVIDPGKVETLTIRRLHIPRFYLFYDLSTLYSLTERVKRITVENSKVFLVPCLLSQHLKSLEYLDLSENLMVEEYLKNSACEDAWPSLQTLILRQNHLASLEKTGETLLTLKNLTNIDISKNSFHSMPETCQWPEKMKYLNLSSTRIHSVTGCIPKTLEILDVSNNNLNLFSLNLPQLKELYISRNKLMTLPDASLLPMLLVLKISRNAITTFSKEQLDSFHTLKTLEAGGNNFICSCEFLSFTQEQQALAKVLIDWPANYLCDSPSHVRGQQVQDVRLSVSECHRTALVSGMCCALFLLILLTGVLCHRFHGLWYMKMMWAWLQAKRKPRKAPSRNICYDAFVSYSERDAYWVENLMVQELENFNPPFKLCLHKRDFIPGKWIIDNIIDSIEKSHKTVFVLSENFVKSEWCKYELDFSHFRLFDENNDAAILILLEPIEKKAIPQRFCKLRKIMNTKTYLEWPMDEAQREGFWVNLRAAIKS", "assay": "Mechanism of the Th1 shift: TLR2 activation", "assay_type": "cell-based"}}, "data": [{"compound": "CC[C@H](CC[C@@H](C)[C@H]1CC[C@H]2[C@@H]3CC[C@H]4C[C@@H](O)CC[C@]4(C)[C@H]3CC[C@]12C)C(C)C", "note": "[sitostanol]", "values": [{"measurement": "IFNγ concentration in the culture medium, change vs. control condition", "setting": "[1]; FIG. 1", "value": "increases"}, {"measurement": "IL-2 concentration in the culture medium, change vs. control condition", "setting": "[1]; FIG. 1", "value": "increases"}, {"measurement": "IL-10 production in PBMCs from asthma patients, change vs. control condition", "setting": "[1]; FIG. 2", "value": "induces IL-10 production"}, {"measurement": "Th1 shift via activation of TLR2", "setting": "TLR2", "value": "induces this Th1 shift via activation of TLR2"}]}]}
